# Measurements published in US20110160280A1, “CANCER-RELATED GENES, CDCA5, EPHA7, STK31 AND WDHD1” (Oncotherapy Science, Inc., priority 2007, published 2011).
# Legend:
# mitotic cells = assay: Immunocytochemical analysis of mitotic cells after siRNA for WDHD1; type: cell-based; details: control si-LUC: normal metaphase figures
# Protocol: Cultured cells were washed twice with PBS(−), fixed in 4% formaldehyde solution for 30 min at room temperature and then rendered permeable with PBS(−) containing 0.1% Triton X-100 for 3 min at room temperature. Nonspecific binding was blocked by Casblock (ZYMED, San Francisco, Calif.) for 10 min at room temperature for CDCA5 and WDHD1, by Casblock (ZYMED, San Francisco, Calif.) for 7 min at room temperature for EPHA7, 3% bovine serum albumin in PBS(−) for 7 min at room temperature for STK31. Cells were then incubated for 60 min (for CDCA5, EPHA7 or STK31) or 10 min (for WDHD1) at room temperature with primary antibodies diluted in PBS containing 3% BSA. After being washed with PBS(−), the cells were stained by a donkey anti-rabbit secondary antibody conjugated to Alexa488 (Molecular Probes) (for CDCA5 and EPHA7) or FITC-conjugated secondary antibody (Santa Cruz Biotechnology, Santa Cruz, Calif.) (for STK31 and WDHD1) at 1:1,000 dilutions for 60 min at room temperature. After another wash with PBS(−), each specimen was mounted with Vectashield (Vector Laboratories, Inc., Burlingame, Calif.) containing 4′,6-diamidino-2-phenylindole and visualized with Spectral Confocal Scanning Systems (TSC SP2 AOBS; Leica Microsystems, Wetzlar, Germany).
# A549 cells [1] = assay: RNA interference assay (oligo based): colony formation and MTT assays; type: cell-based, human
# A549 cells [2] = assay: Flow cytometry (cell cycle) after si-WDHD1; type: cell-based, human
# Protocol: Cells were collected in PBS, and fixed in 70% cold ethanol for 30 minutes. After treatment with 100 μg/mL RNase (Sigma/Aldrich, St. Louis, Mo.), the cells were stained with 50 μg/mL propidium iodide (Sigma/Aldrich, St.) in PBS. Flow cytometry was done on a Becton Dickinson FACScan and analyzed by ModFit software (Verity Software House, Inc., Topsham, Me.). The cells selected from at least 20,000 ungated cells were analyzed for DNA content.
# A549 cells [3] = assay: Time-lapse imaging (live cell imaging) after siRNA for WDHD1; type: cell-based, human; details: control cells divided about every 10 hours
# Protocol: Cells were grown on a 35 mm glass-bottom dish in phenol red-free Dulbecco's modified Eagle's medium containing 10% fetal bovine serum (FBS). Cells were transfected with siRNA and subjected to time-lapse imaging using a computer-assisted fluorescence microscope (Olympus, LCV100) equipped with an objective lens (Olympus, UAPO 40×/340 N.A.=0.90), a halogen lamp, a red LED (620 nm), a CCD camera (Olympus, DP30), differential interference contrast (DIC) optical components, and interference filters. For DIC imaging, the red LED was used with a filter cube containing an analyzer. Image acquisition and analysis were performed by using MetaMorph 6.13 software (Universal Imaging, Media, Pa.).
# TE9 cells = assay: RNA interference assay (oligo based): colony formation and MTT assays; type: cell-based, human
# Protocol: (§1) Small interfering RNA (siRNA) duplexes (Dharmacon, Inc., Lafayette, Colo.) (600 pM) were transfected into lung-cancer cell lines LC319 and A549 for CDCA5; NCI-H520 and SBC-5 for EPHA7; LC319 for WDHD1, and esophageal cancer cell line TE9 for WDHD1 using 30 μl of Lipofectamine 2000 (Invitrogen, Carlsbad, Calif.) following the manufacturer's protocol. The transfected cells were cultured for 7 days, and the number of colonies was counted by Giemsa staining, and viability of cells was evaluated by 3-(4,5-dimethylthiazol-2-yl)-2,5-diphenyltetrazolium bromide (MTT) assay (cell counting kit-8 solution; Dojindo Laboratories, Kumanoto, Japan), at 7 days after transfection. To confirm suppression of gene expression, semiquantitative RT-PCR was carried out with synthesized primers described above.
# LC319 cells = assay: as above; type: cell-based, human
# Protocol: as §1
# WDHD1 = assay: RNA interference assay: WDHD1 knockdown by RT-PCR; type: cell-based, human; details: A549, LC319 and TE9 cells
# Protocol: Total RNA was extracted from cultured cells using Trizol reagent (Life Technologies, Inc. Gaithersburg, Md.) according to the manufacturer's protocol. Extracted RNAs were treated with DNase I (Nippon Gene, Tokyo, Japan) and reversely-transcribed using oligo (dT) primer and SuperScript II. The primer sets for amplification were as follows:
# as §1
# [4] = synchronized A549 cells after cell cycle release
substance,measurement,setting,value
"5′-GGUAAUACGUGGACUCCUA UU-3′ (GGUAAUACGUGGACUCCUAUU; listed as RNA, chemistry not given here) [si-WDHD1-#2]",chromosome congression in mitotic cells,mitotic cells,chromosomes failed to congress at the spindle midzone
same,"number of A549 cells (MTT and colony-formation assays), siRNA against WDHD1",A549 cells [1],drastic reduction in the number of cells
same,number of cells in S phase,"A549 cells [2]; A549 cells, 24˜72 hours after transfection",continuously decreased
same,proportion of cells in G0/G1 phase,"A549 cells [2]; A549 cells, 48˜72 hours after transfection",increased
same,number of cells in G0/G1 phase,A549 cells [2]; [4],increased
same,progression of S phase,A549 cells [2]; [4],delayed
same,cell division and cell death (time-lapse microscopy),A549 cells [3],divided slowly and died shortly after cell division
same,"number of TE9 cells (MTT and colony-formation assays), siRNA against WDHD1",TE9 cells,drastic reduction in the number of cells
same,"number of LC319 cells (MTT and colony-formation assays), siRNA against WDHD1",LC319 cells,drastic reduction in the number of cells
same,WDHD1 knockdown effect (RT-PCR),WDHD1,knockdown effect was confirmed
